Laboratory results from publication PMC4632759, “Studies on [5,6]-Fused Bicyclic Scaffolds Derivatives as Potent Dual B-Raf^V600E/KDR Inhibitors Using Docking and 3D-QSAR Approaches” (International Journal of Molecular Sciences, 2015).
Read-outs that look alike come from different tables or passages of the source.

Columns and labels:
[1] = biological target: T1, B-Raf^V600E (Homo sapiens, UniProt P15056, V600E); assay: B-Raf^V600E inhibitory activity of designed new compounds (preliminary pharmacological evaluation); type: biochemical; details: for IC50: preliminary biological tests
T1 sequence (P15056 whole entry V600E): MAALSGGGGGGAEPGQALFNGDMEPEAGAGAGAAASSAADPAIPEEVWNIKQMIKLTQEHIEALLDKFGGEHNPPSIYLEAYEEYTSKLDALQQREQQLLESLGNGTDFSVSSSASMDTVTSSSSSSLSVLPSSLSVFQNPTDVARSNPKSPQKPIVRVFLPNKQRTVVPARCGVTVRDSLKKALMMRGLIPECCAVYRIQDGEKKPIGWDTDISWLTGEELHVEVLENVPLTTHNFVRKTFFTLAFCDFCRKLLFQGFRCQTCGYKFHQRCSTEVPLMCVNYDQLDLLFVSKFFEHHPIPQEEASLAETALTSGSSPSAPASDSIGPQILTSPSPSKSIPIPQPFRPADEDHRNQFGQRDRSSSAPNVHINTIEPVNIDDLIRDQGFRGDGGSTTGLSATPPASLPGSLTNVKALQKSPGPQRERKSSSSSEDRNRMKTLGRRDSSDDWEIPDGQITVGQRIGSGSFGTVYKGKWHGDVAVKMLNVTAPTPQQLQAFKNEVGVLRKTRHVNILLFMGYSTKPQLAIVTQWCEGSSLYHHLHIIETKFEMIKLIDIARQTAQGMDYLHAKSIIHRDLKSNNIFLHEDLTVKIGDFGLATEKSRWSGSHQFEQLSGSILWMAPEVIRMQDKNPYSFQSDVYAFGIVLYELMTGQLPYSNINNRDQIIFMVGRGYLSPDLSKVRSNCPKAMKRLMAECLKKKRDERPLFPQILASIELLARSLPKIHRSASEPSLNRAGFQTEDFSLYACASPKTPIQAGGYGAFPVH
Source text: (§1) The designed molecules were synthesized and the preliminary pharmacological evaluation would be used to verify the biological activity and our design strategy.

[2] = biological target: KDR (Homo sapiens, UniProt P35968); assay: KDR inhibitory activity of designed new compounds (preliminary pharmacological evaluation); type: biochemical; details: for IC50: preliminary biological tests
Sequence of KDR (P35968 20-1356): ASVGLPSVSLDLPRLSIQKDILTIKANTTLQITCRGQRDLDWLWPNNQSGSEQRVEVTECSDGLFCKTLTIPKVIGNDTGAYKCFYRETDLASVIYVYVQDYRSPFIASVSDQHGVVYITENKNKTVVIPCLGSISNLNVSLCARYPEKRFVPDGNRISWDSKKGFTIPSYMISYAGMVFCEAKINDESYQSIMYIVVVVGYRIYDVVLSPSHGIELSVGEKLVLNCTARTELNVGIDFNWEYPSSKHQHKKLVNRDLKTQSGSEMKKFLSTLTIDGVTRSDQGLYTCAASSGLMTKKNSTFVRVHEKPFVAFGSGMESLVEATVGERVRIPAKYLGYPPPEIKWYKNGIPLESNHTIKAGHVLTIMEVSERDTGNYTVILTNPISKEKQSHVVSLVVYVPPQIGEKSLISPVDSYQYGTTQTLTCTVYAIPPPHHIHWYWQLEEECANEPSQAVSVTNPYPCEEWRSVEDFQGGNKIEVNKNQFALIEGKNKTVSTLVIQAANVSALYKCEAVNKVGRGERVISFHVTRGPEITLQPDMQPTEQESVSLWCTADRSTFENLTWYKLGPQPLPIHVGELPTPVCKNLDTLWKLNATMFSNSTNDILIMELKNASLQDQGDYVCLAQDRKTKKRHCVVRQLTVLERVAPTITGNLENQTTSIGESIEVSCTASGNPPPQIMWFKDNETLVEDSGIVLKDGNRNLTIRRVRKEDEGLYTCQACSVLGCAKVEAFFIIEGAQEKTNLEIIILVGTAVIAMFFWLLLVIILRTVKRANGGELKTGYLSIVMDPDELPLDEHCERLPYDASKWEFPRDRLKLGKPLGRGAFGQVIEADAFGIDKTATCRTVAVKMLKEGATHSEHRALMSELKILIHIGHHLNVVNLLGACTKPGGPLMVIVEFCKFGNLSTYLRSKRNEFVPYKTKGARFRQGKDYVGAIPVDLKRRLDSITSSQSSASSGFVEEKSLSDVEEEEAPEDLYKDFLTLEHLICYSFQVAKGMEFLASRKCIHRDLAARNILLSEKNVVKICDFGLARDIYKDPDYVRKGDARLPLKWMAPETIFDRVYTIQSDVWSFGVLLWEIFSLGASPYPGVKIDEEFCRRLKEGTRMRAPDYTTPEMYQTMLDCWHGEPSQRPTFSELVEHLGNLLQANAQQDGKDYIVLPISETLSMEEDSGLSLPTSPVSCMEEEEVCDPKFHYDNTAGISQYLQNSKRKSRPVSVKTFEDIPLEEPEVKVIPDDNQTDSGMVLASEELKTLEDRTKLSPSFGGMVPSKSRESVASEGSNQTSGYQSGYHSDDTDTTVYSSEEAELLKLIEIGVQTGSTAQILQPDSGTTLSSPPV
Source text: as §1

[3] = system: C-Raf; design: method as in PMID 22376051, PMID 22763369, PMID 22883026, PMID 23906342; details: cited from earlier work
[4] = biological target: T1, B-Raf^V600E; design: method as in PMID 22376051, PMID 22763369, PMID 22883026, PMID 23906342; details: literature values used as 3D-QSAR data set; read-out: Kinase IC50 B-Raf^V600E; cited from earlier work
[5] = system: wild-type B-Raf; design: method as in PMID 22376051, PMID 22763369, PMID 22883026, PMID 23906342; details: cited from earlier work
[6] = biological target: VEGFR2 (Homo sapiens, UniProt P35968); design: method as in PMID 22376051, PMID 22763369, PMID 22883026, PMID 23906342; details: literature values used as 3D-QSAR data set; read-out: Kinase IC50 VEGFR2; cited from earlier work
Sequence of VEGFR2 (P35968 806-1171): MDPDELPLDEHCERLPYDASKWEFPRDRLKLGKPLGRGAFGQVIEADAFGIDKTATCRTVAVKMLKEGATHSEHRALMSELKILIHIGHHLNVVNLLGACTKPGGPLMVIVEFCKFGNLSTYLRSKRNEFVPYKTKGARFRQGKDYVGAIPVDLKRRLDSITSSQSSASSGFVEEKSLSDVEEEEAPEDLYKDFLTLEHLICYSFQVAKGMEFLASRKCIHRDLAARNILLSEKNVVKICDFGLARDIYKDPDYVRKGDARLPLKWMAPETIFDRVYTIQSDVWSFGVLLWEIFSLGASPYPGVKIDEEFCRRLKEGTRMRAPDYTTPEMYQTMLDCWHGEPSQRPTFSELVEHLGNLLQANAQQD

SMILES | Actual pIC50 B-Raf [1] | IC50 [1] | IC50 [2] | Actual pIC50 KDR [2] | IC50 [3] | IC50 [4] | IC50 [5] | IC50 [6]
CNC(=O)c1nc2ccc(C(=O)c3cccc(NC(=O)c4ccc(Cl)c(Cl)c4)c3)cc2[nH]1 [Compound D5] | 6.82 | 150 nM | > 5000 nM | – | – | – | – | –
CNC(=O)c1nc2ccc(C(=O)c3cccc(NC(=O)c4cccc(F)c4)c3)cc2[nH]1 [Compound D4] | – | > 5000 nM | 890 nM | 6.05 | – | – | – | –
CNC(=O)c1nc2ccc(C(=O)c3cccc(NC(=O)c4ccc(Cl)cc4)c3)cc2[nH]1 [Compound D3] | – | > 5000 nM | 950 nM | 6.02 | – | – | – | –
CNC(=O)c1nc2ccc(C(=O)c3cccc(NC(=O)c4ccc(C)cc4)c3)cc2[nH]1 [Compound D1] | 6.55 | 280 nM | 990 nM | 6.00 | – | – | – | –
N#CC1(c2cccc(C(=O)Nc3cc(Oc4ccc5nc(NC(=O)C6CC6)sc5n4)ccc3F)c2Cl)CC1 [Compound 0JA] | – | – | – | – | 1.5 nM | 7 nM | 12 nM | 2.2 nM
CCNC(=O)c1nc2ccc(C(=O)c3cccc(NC(=O)c4cccc(C(F)(F)F)c4)c3)cc2[nH]1 [Compound D6] | – | > 5000 nM | 390 nM | 6.41 | – | – | – | –
